From patent US20070092577A1, “Dietary calcium for reducing the production of reactive oxygen species” (University of Tennessee Research Foundation, priority 2005, published 2007)

Assays:
[1] = system: Mitochondrial potential in cultured wild-type 3T3-L1 adipocytes; experiment: Mitochondrial membrane potential (JC-1); format: cell-based, murine; settings: H2O2 100 nmol/L, 48 hours
Description: 3T3-L1 preadipocytes were incubated at a density of 8000 cells/cm^2 (10 cm^2 dish) and grown in Dulbecco's modified Eagle's medium (DMEM) containing 10% FBS and antibiotics (adipocyte medium) at 37° C. in 5% CO2 in air. Confluent preadipocytes were induced to differentiate with a standard differentiation medium consisting of DMEM-F 10 (1:1, vol/vol) medium supplemented with 1% FBS, 1 μM dexamethasone, IBMX (0.5 mM) and antibiotics (1% Penicillin-Streptomycin). Preadipocytes were maintained in this differentiation medium for 3 days and subsequently cultured in adipocyte medium. Cultures were re-fed every 2-3 days to allow 90% of cells to reach full differentiation before conducting chemical treatment. Chemicals were freshly diluted in adipocyte medium before treatment. […] Cell viability was measured via trypan blue exclusion.
Mitochondrial membrane potential was analyzed fluorometrically with a lipophilic cationic dye JC-1 (5,5′,6,6′-tetrachloro-1,1′,3,3′-tetraethylbenzimidazol carbocyanine iodide) using a mitochondrial potential detection kit (Biocarta, San Diego, Calif.). Mitochondrial potential was determined as the ratio of red fluorescence (excitation 550 nm, emission 600 mn) and green fluorescence (excitation 485 nm, emission 535 nm) using a fluorescence microplate reader.

IL-8 = IL-8 expression in differentiated Zen-bio human adipocytes; format: cell-based; settings: 10 nmol/L, 48 h; p<0.001
Description: (§1) Human pre-adipocytes used in this study were supplied by Zen-Bio (Research Triangle, N.C.). […] The cells are isolated from the stromal vascular fraction of human subcutaneous adipose tissue and differentiated in vitro as follows: […] Preadipocytes were maintained in this differentiation medium for 3 days and subsequently cultured in adipocyte medium in which BRL49653 and MIX were omitted. Cultures were re-fed every 2-3 days till fully differentiated. Cells were incubated in serum free medium overnight before chemical treatment. Chemicals were freshly diluted in adipocyte medium before treatment. […] Cell viability was measured via trypan blue exclusion. Adipocyte and muscle 18s, TNFα, IL-6, IL-8, IL-15 and adiponectin were quantitatively measured using a smart cycler real-time PCR system (Cepheid, Sunnyvale, Calif.) with a TaqMan 1000 Core Reagent Kit (Applied Biosystems, Branchburg, N.J.). […] Reactions of quantitative RT-PCR for standards and unknown samples were also performed according to the instructions of Smart Cycler System (Cepheid, Sunnyvale, Calif.) and TaqMan Real Time PCR Core Kit (Applied Biosystems, Branchburg, N.J.). The mRNA quantitation for each sample was further normalized using the corresponding 18s quantitation.

MIP = MIP expression in 3T3-L1 adipocytes; format: cell-based, mouse; settings: calcitriol 10 nmol/L, 48 hours
Description: (§2) RAW 264 macrophages and 3T3-L1 preadipocytes (American Type Culture Collection) were incubated at a density of 8000 cells/cm2 (10 cm2 dish) and grown in Dulbecco's modified Eagle's medium (DMEM) containing 10% FBS and antibiotics (adipocyte medium) at 37° C. in 5% CO2 in air. Confluent 3T3-L1 preadipocytes were induced to differentiate with a standard differentiation medium consisting of DMEM-F10 (1:1, vol/vol) medium supplemented with 1% FBS, 1 μM dexamethasone, IBMX (0.5 mM) and antibiotics (1% Penicillin-Streptomycin). Preadipocytes were maintained in this differentiation medium for 3 days and subsequently cultured in adipocyte medium. […]
(§3) Cells were washed with fresh adipocyte medium, re-fed with medium containing the indicated treatments, and incubated at 37° C. in 5% CO2 for 48 hours before analysis. Cell viability was measured via trypan blue exclusion.
(§4) Adipocyte and muscle 18s, CD14, TNFα, MIP, M-CSF, IL-6 and MCP-1 were quantitatively measured using a Smart Cycler Real Time PCR System (Cepheid, Sunnyvale, Calif.) with a TaqMan 1000 Core Reagent Kit (Applied Biosystems, Branchburg, N.J.). […] Reactions of quantitative RT-PCR for standards and unknown samples were also performed according to the instructions of Smart Cycler System (Cepheid, Sunnyvale, Calif.) and TaqMan Real Time PCR Core Kit (Applied Biosystems, Branchburg, N.J.). […]

CD14 = CD14 expression in mouse (3T3-L1) adipocytes; format: cell-based; settings: calcitriol 10 nmol/L, 48 hours
Description: as §2, §3, §4

MCP-1 = MCP-1 expression in 3T3-L1 adipocytes; format: cell-based, mouse; settings: calcitriol 10 nmol/L, 48 hours
Description: as §2, §3, §4

MIF = MIF expression in mouse (3T3-L1) adipocytes; format: cell-based; settings: calcitriol 10 nmol/L, 48 hours
Description: as §2, §3, §4

adiponectin = experiment: Adiponectin expression in differentiated Zen-bio human adipocytes; format: cell-based; settings: 10 nmol/L 1α, 25-(OH)2-D3 or 10 μmol/L nifedipine, 48 h; p=0.377
Description: as §1

IL-6 [2] = experiment: IL-6 expression in differentiated Zen-bio human adipocytes; format: cell-based; settings: 10 nmol/L, 48 h; p=0.004
Description: as §1

IL-6 [3] = experiment: IL-6 expression in RAW 264 macrophages; format: cell-based
Description: RAW 264 macrophages and 3T3-L1 preadipocytes (American Type Culture Collection) were incubated at a density of 8000 cells/cm2 (10 cm2 dish) and grown in Dulbecco's modified Eagle's medium (DMEM) containing 10% FBS and antibiotics (adipocyte medium) at 37° C. in 5% CO2 in air. Confluent 3T3-L1 preadipocytes were induced to differentiate with a standard differentiation medium consisting of DMEM-F10 (1:1, vol/vol) medium supplemented with 1% FBS, 1 μM dexamethasone, IBMX (0.5 mM) and antibiotics (1% Penicillin-Streptomycin). Preadipocytes were maintained in this differentiation medium for 3 days and subsequently cultured in adipocyte medium. Cultures were re-fed every 2-3 days to allow 90% cells to reach fully differentiation for 3T3-L1 adipocytes or grow to a confluence for RAW 264 before conducting chemical treatment.
Human adipocytes (Zen-Bio, Inc.), 3T3-L1 adipocytes, RAW264 macrophages were obtained and co-cultured by using transwell inserts with 0.4 μm porous membranes (Corning) to separate adipocytes and macrophages. All data are expressed as mean±SEM. Data were evaluated for statistical significance by analysis of one-way or two-way variance (ANOVA; means with different letter differ, p<0.05).
Adipocyte and muscle 18s, CD14, TNFα, MIP, M-CSF, IL-6 and MCP-1 were quantitatively measured using a Smart Cycler Real Time PCR System (Cepheid, Sunnyvale, Calif.) with a TaqMan 1000 Core Reagent Kit (Applied Biosystems, Branchburg, N.J.). The primers and probe sets were obtained from Applied Biosystems TaqMan® Assays-on-Demand™ Gene Expression primers and probe set collection according to manufacture's instruction. […] Reactions of quantitative RT-PCR for standards and unknown samples were also performed according to the instructions of Smart Cycler System (Cepheid, Sunnyvale, Calif.) and TaqMan Real Time PCR Core Kit (Applied Biosystems, Branchburg, N.J.). The mRNA quantitation for each sample was further normalized using the corresponding 18s quantitation.

For `OO` [H2O2, hydrogen peroxide], the “increase of mitochondrial potential” value [1] was 72%.
In the case of `C=C1/C(=C\C=C2/CCC[C@]3(C)[C@@H]([C@H](C)CCCC(C)(C)O)CC[C@@H]23)C[C@@H](O)C[C@@H]1O` [calcitriol, 1, 25-Dihydroxyvitamin D], the “stimulation of IL-8 expression” value (IL-8) is reported as 49%, the “effect on MIP expression” value (MIP) is reported as “markedly stimulate” and the “increase of CD14 expression” value (CD14) is reported as 45%. For the same compound, the “effect on MCP-1 expression” value (MCP-1) was “markedly stimulate”, the “increase of MIF expression” value (MIF) was 50% and the “effect on adiponectin expression” value (adiponectin) was “no effect”. For the same compound, the “stimulation of IL-6 expression” value (IL-6 [2]) was 53%, the “effect on IL-6 expression in macrophages in co-culture” value (IL-6 [3]; co-culture with differentiated 3T3-L1 adipocytes) was “further enhanced” and the “stimulation of IL-6 expression” value (IL-6 [3]; macrophages cultured alone, calcitriol 10 nmol/L, 48 hours) was 796%.
